Test results published in patent US10688131B2, “Peptides and scaffolds for use in immunotherapy against head and neck squamous cell carcinoma and other cancers” (Immatics Biotechnologies GmbH, priority 2016, dated 2020).

What was measured:
CD8+ T cells = test: In vitro T-cell priming assay with aAPCs loaded with peptide/MHC complexes and anti-CD28 antibody, pMHC multimer readout; type: cell-based, human; settings: percentage of positive wells among evaluable, HLA-A*02 restricted peptides
Description: In order to obtain information regarding the immunogenicity of the TUMAPs of the present invention, the inventors performed investigations using an in vitro T-cell priming assay based on repeated stimulations of CD8+ T cells with artificial antigen presenting cells (aAPCs) loaded with peptide/MHC complexes and anti-CD28 antibody.
In order to perform in vitro stimulations by artificial antigen presenting cells loaded with peptide-MHC complex (pMHC) and anti-CD28 antibody, the inventors first isolated CD8+ T cells from fresh HLA-A*02 leukapheresis products via positive selection using CD8 microbeads (Miltenyi Biotech, Bergisch-Gladbach, Germany) of healthy donors obtained from the University clinics Mannheim, Germany, after informed consent.
PBMCs and isolated CD8+ lymphocytes were incubated in T-cell medium (TCM) until use consisting of RPMI-Glutamax (Invitrogen, Karlsruhe, Germany) supplemented with 10% heat inactivated human AB serum (PAN-Biotech, Aidenbach, Germany), 100 U/ml Penicillin/100 μg/ml Streptomycin (Cambrex, Cologne, Germany), 1 mM sodium pyruvate (CC Pro, Oberdorla, Germany), 20 μg/ml Gentamycin (Cambrex). 2.5 ng/ml IL-7 (PromoCell, Heidelberg, Germany) and 10 U/ml IL-2 (Novartis Pharma, Nürnberg, Germany) were also added to the TCM at this step.
Generation of pMHC/anti-CD28 coated beads, T-cell stimulations and readout was performed in a highly defined in vitro system using four different pMHC molecules per stimulation condition and 8 different pMHC molecules per readout condition.
The purified co-stimulatory mouse IgG2a anti human CD28 Ab 9.3 (Jung et al., 1987) was chemically biotinylated using Sulfo-N-hydroxysuccinimidobiotin as recommended by the manufacturer (Perbio, Bonn, Germany). Beads used were 5.6 μm diameter streptavidin coated polystyrene particles (Bangs Laboratories, Illinois, USA).
pMHC used for positive and negative control stimulations were A*0201/MLA-001 (peptide […] (SEQ ID NO. 157) from modified Melan-A/MART-1) and A*0201/DDX5-001 ([…] from DDX5, SEQ ID NO. 158), respectively.
800.000 beads/200 μl were coated in 96-well plates in the presence of 4×12.5 ng different biotin-pMHC, washed and 600 ng biotin anti-CD28 were added subsequently in a volume of 200 μl. Stimulations were initiated in 96-well plates by co-incubating 1×10^6 CD8+ T cells with 2×10^5 washed coated beads in 200 μl TCM supplemented with 5 ng/ml IL-12 (PromoCell) for 3 days at 37° C. Half of the medium was then exchanged by fresh TCM supplemented with 80 U/ml IL-2 and incubating was continued for 4 days at 37° C. This stimulation cycle was performed for a total of three times. For the pMHC multimer readout using 8 different pMHC molecules per condition, a two-dimensional combinatorial coding approach was used as previously described (Andersen et al., 2012) with minor modifications encompassing coupling to 5 different fluorochromes. Finally, multimeric analyses were performed by staining the cells with Live/dead near IR dye (Invitrogen, Karlsruhe, Germany), CD8-FITC antibody clone SK1 (BD, Heidelberg, Germany) and fluorescent pMHC multimers. For analysis, a BD LSRII SORP cytometer equipped with appropriate lasers and filters was used. Peptide specific cells were calculated as percentage of total CD8+ cells. Evaluation of multimeric analysis was done using the FlowJo software (Tree Star, Oregon, USA). In vitro priming of specific multimer+CD8+ lymphocytes was detected by comparing to negative control stimulations.
Exemplary flow cytometry results after TUMAP-specific multimer staining for 2 peptides of the invention are shown in FIGS. 3A and 3B together with corresponding negative controls. Additional exemplary flow cytometry results after TUMAP-specific multimer staining for 3 peptides of the invention are shown in FIGS. 4A-4C together with corresponding negative controls.

HLA-A*02:01 = HLA-A*02:01 (Homo sapiens, UniProt P04439, D140Y/D185E/D98H/E176V/E277Q/G131W/G231S/I119V/I121R/I166T/I218V/L300P/L318F/N151K/N90K/P208A/P217A/Q86G/Q94H/R138H/R169H/T345S); test: MHC binding assay: UV-ligand exchange with β2m ELISA; settings: binding of HLA-class I restricted peptides to HLA-A*02:01
Description: Candidate peptides for T cell based therapies according to the present invention were further tested for their MHC binding capacity (affinity). The individual peptide-MHC complexes were produced by UV-ligand exchange, where a UV-sensitive peptide is cleaved upon UV-irradiation, and exchanged with the peptide of interest as analyzed. Only peptide candidates that can effectively bind and stabilize the peptide-receptive MHC molecules prevent dissociation of the MHC complexes. To determine the yield of the exchange reaction, an ELISA was performed based on the detection of the light chain (β2m) of stabilized MHC complexes. The assay was performed as generally described in Rodenko et al. (Rodenko et al., 2006).
96 well MAXISorp plates (NUNC) were coated over night with 2 ug/ml streptavidin in PBS at room temperature, washed 4× and blocked for 1 h at 37° C. in 2% BSA containing blocking buffer. Refolded HLA-A*02:01/MLA-001 monomers served as standards, covering the range of 15-500 ng/ml. Peptide-MHC monomers of the UV-exchange reaction were diluted 100-fold in blocking buffer. Samples were incubated for 1 h at 37° C., washed four times, incubated with 2 ug/ml HRP conjugated anti-β2m for 1 h at 37° C., washed again and detected with TMB solution that is stopped with […]. Absorption was measured at 450 nm. Candidate peptides that show a high exchange yield (preferably higher than 50%, most preferred higher than 75%) are generally preferred for a generation and production of antibodies or fragments thereof, and/or T cell receptors or fragments thereof, as they show sufficient avidity to the MHC molecules and prevent dissociation of the MHC complexes.

| Peptide exchange (MHC class I binding score, peptide exchange yield) (HLA-A*02:01) | Substance | Wells positive [%] (CD8+ T cells) |
| --- | --- | --- |
| ++++ (>75% = ++++) | 20 (YLINEIDRIRA; listed as Homo sapiens) [compound 20] | + (<20% = +) |
| +++ (>50 = +++) | 26 (TLVDENQSWYL; listed as Homo sapiens) [compound 26] | ++ (20%-49% = ++) |
| ++++ (>75% = ++++) | 28 (AVDPVSGSLYV; listed as Homo sapiens) [compound 28] | +++ (50%-69% = +++) |
| +++ (>50 = +++) | 82 (VLDINDNPPV; listed as Homo sapiens) [compound 82] | + (<20% = +) |

The next lines start with the substance.

| Substance | Peptide exchange (MHC class I binding score, peptide exchange yield) (HLA-A*02:01) | Wells positive [%] (CD8+ T cells) |
| --- | --- | --- |
| 18 (YLYPDLSRL; listed as Homo sapiens) [compound 18] | ++++ (>75% = ++++) | + (<20% = +) |
| 19 (ALAKLLPLL; listed as Homo sapiens) [compound 19] | ++++ (>75% = ++++) | ++ (20%-49% = ++) |
| 29 (RLLPDLDEV; listed as Homo sapiens) [compound 29] | ++++ (>75% = ++++) | ++ (20%-49% = ++) |
| 30 (TLASLGYAVV; listed as Homo sapiens) [compound 30] | +++ (>50 = +++) | +++ (50%-69% = +++) |
